Source: patent publication US9085576B2 (AMGEN INC., priority 2013, dated 2015)
pIC50: −log10 of the molar value. Where a name gives a salt, the structure may show the parent alone. Read-outs that look alike come from different tables or passages of the source.

What was measured:
BACE = BACE (Homo sapiens (Human), UniProt P56817); assay: In vitro BACE cell-based assay (Aβ40 in conditioned medium, sandwich ELISA)
[1] = target: Beta Secretase enzyme (BACE) (Homo sapiens (Human), UniProt P56817); assay: In vitro enzymatic BACE FRET assay; format: biochemical
Cathepsin D (Cat D) = Cathepsin D (Cat D) (Homo sapiens (Human), UniProt P07339); assay: In vitro enzymatic Cathepsin D (Cat D) FRET assay; format: biochemical
[2] = read-out: BACE1 Enzyme assay IC50

Chain of Beta Secretase enzyme (BACE) (P56817 46-501): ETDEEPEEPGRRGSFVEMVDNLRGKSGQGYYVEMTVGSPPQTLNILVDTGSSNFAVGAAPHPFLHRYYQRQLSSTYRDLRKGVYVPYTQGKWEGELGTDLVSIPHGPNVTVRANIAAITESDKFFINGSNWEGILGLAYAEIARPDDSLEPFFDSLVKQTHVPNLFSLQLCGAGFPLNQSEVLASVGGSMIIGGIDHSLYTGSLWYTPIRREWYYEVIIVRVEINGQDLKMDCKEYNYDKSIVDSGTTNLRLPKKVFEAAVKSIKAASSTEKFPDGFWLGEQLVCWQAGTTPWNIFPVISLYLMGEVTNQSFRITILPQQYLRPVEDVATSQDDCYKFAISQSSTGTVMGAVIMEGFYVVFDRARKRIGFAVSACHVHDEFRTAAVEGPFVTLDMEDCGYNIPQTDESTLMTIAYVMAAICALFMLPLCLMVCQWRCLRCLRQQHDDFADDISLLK
Chain of BACE (P56817 46-501, species assumed): as the sequence (P56817 46-501) above
Chain of Cathepsin D (Cat D) (P07339 65-412, species assumed): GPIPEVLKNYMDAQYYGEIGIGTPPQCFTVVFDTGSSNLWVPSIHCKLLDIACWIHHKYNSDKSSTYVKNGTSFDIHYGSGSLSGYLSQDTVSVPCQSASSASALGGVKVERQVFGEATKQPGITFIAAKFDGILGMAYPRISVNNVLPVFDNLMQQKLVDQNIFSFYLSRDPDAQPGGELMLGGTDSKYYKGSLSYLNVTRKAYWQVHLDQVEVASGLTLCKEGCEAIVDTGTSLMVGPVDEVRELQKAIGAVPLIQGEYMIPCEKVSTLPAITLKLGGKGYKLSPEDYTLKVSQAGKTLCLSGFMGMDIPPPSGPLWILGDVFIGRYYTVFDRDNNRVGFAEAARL

## N#Cc1cnc2c(c1)CC[C@@H]2Nc1ccc(F)c([C@@]2(C(F)F)N=C(N)O[C@@H]3C[C@@H]32)c1 (single isomer, unassigned) [Example 402]
BACE
  pIC50: 6.50
[1]; [2]
  pIC50: 6.01

## NC1=N[C@](CF)(c2cc(NC(=O)c3ccc(Cl)cn3)cc(F)c2F)[C@H]2C[C@H]2O1 [Example 142, N-(3-(((1R,S),(5S,R),(6R,S))-3-amino-5-(fluoromethyl)-2-oxa-4-azabicyclo[4.1.0]hept-3-en-5-yl)-4,5-difluorophenyl)-5-chloropicolinamide]
BACE
  IC50: 0.0263 µM

## Cc1cc(C(F)F)cnc1C(=O)Nc1ccc(F)c([C@@]2(CF)N=C(N)O[C@@H]3C[C@@H]32)c1 [Example 201, N-(3-((1R,5S,6R)-3-amino-5-(fluoromethyl)-2-oxa-4-azabicyclo[4.1.0]hept-3-en-5-yl)-4-fluorophenyl)-5-(difluoromethyl)-3-methylpicolinamide]
BACE
  IC50: 0.0179 µM
[1]; [2]
  pIC50: 7.20

## Cc1cc(OC(F)F)cnc1C(=O)Nc1ccc(Cl)c(C2(C(F)F)N=C(N)O[C@@H]3C[C@@H]32)c1 (stereo partly drawn) [Example 209]
BACE
  IC50: 0.0765 µM
[1]; [2]
  pIC50: 7.04

## C#CCOc1cnc(C(=O)Nc2ccc(Cl)c([C@]3(C(F)F)N=C(N)O[C@H]4C[C@H]43)c2)cn1 [Example 222, N-(3-((1S,5R,6S)-3-amino-5-(difluoromethyl)-2-oxa-4-azabicyclo[4.1.0]hept-3-en-5-yl)-4-chlorophenyl)-5-(prop-2-yn-1-yloxy)pyrazine-2-carboxamide]
Cathepsin D (Cat D); read-out: CatD IC50
  pIC50: 3.31
[1]; [2]
  pIC50: 6.15

## NC1=N[C@](c2cc(NC(=O)c3nn(C(F)F)cc3Cl)ccc2Cl)(C(F)F)[C@@H]2C[C@@H]2O1 [Example 225, N-(3-((1S,5R,6S)-3-amino-5-(difluoromethyl)-2-oxa-4-azabicyclo[4.1.0]hept-3-en-5-yl)-4-chlorophenyl)-4-chloro-1-(difluoromethyl)-1H-pyrazole-3-carboxamide]
Cathepsin D (Cat D); read-out: CatD IC50
  pIC50: 2.87
[1]; [2]
  pIC50: 5.08

## NC1=N[C@@](c2cccc(NC(=O)c3ccc(Cl)cn3)c2)(C(F)F)[C@H]2C[C@H]2O1 [Example 263, N-(3-([(1R,S),(5S,R),(6R,S)]-3-amino-5-(difluoromethyl)-2-oxa-4-azabicyclo[4.1.0]hept-3-en-5-yl)phenyl)-5-chloropicolinamide]
Cathepsin D (Cat D); read-out: CatD IC50
  pIC50: 2.97
[1]; [2]
  pIC50: 6.28

## NC1=N[C@@](c2cccc(NC(=O)c3ccc(Cl)cn3)c2)(C(F)F)[C@H]2C[C@H]2O1 [Example 265, N-(3-((1R,5S,6R)-3-amino-5-(difluoromethyl)-2-oxa-4-azabicyclo[4.1.0]hept-3-en-5-yl)phenyl)-5-chloropicolinamide]
Cathepsin D (Cat D); read-out: CatD IC50
  pIC50: 3.40
[1]; [2]
  pIC50: 6.58

## NC1=N[C@@](CF)(c2cc(NC(=O)c3ccc(Cl)cn3)ccc2Cl)[C@@H]2C[C@@H]2O1 [Example 271]
Cathepsin D (Cat D); read-out: CatD IC50
  pIC50: < 3.40
[1]; [2]
  pIC50: 4.62

## NC1=N[C@@](CF)(c2cc(NC(=O)c3ccc(Cl)cn3)ccc2Cl)[C@@H]2CC2O1 (stereo partly drawn) [Example 276, N-(3-(((1R,S), (5S,R), (6R,S))-3-amino-5-(fluoromethyl)-2-oxa-4-azabicyclo[4.1.0]hept-3-en-5-yl)-4-chlorophenyl)-5-chloropicolinamide]
Cathepsin D (Cat D); read-out: CatD IC50
  pIC50: 3.04
[1]; [2]
  pIC50: 6.86

## COc1cc(Cl)cnc1C(=O)Nc1ccc(Cl)c([C@@]2(CF)N=C(N)O[C@@H]3C[C@@H]32)c1 [Example 297, N-(3-((1R,5S,6R)-3-amino-5-(fluoromethyl)-2-oxa-4-azabicyclo[4.1.0]hept-3-en-5-yl)-4-chlorophenyl)-5-chloro-3-methoxypicolinamide]
BACE
  IC50: 0.0074 µM
[1]; [2]
  pIC50: 6.74

## COc1cnc(C(=O)Nc2ccc(F)c([C@@]3(C)N=C(N)O[C@@H]4C[C@@H]43)n2)cn1 [Example 322, N-(6-((1R,5S,6R)-3-amino-5-methyl-2-oxa-4-azabicyclo[4.1.0]hept-3-en-5-yl)-5-fluoropyridin-2-yl)-5-methoxypyrazine-2-carboxamide]
BACE
  IC50: 0.184 µM
[1]; [2]
  pIC50: 5.70

## C[C@@]1(c2nc(NC(=O)c3ccc(C#N)cn3)ccc2F)N=C(N)O[C@H]2C[C@H]21 [Example 325, N-(6-((1S,5R,6S)-3-amino-5-methyl-2-oxa-4-azabicyclo[4.1.0]hept-3-en-5-yl)-5-fluoropyridin-2-yl)-5-cyanopicolinamide]
Cathepsin D (Cat D); read-out: CatD IC50
  pIC50: 2.89
[1]; [2]
  pIC50: < 4.40

## C[C@@]1(c2cc(NC(=O)c3ccc(Cl)cn3)cnc2F)N=C(N)O[C@H]2C[C@H]21 [Example 335, N-(5-((1S,5R,6S)-3-amino-5-methyl-2-oxa-4-azabicyclo[4.1.0]hept-3-en-5-yl)-6-fluoropyridin-3-yl)-5-chloropicolinamide]
Cathepsin D (Cat D); read-out: CatD IC50
  pIC50: < 3.40
[1]; [2]
  pIC50: 4.85

## COc1cnc2c(Nc3ccc(F)c([C@@]4(C)N=C(N)O[C@H]5C[C@H]54)c3)nccc2c1 [Example 337, (1S,5S,6S)-5-(2-fluoro-5-((3-methoxy-1,7-naphthyridin-8-yl)amino)phenyl)-5-methyl-2-oxa-4-azabicyclo[4.1.0]hept-3-en-3-amine]
Cathepsin D (Cat D); read-out: CatD IC50
  pIC50: < 3.40
[1]; [2]
  pIC50: 5.48

## COc1cnc2c(Nc3ccc(F)c([C@]4(C)N=C(N)O[C@@H]5C[C@@H]54)c3)nccc2c1 [Example 338, (1R,5R,6R)-5-(2-fluoro-5-((3-methoxy-1,7-naphthyridin-8-yl)amino)phenyl)-5-methyl-2-oxa-4-azabicyclo[4.1.0]hept-3-en-3-amine]
Cathepsin D (Cat D); read-out: CatD IC50
  pIC50: 4.25
[1]; [2]
  pIC50: < 4.40

## COc1cnc2c(Nc3ccc(F)c([C@]4(C)N=C(N)O[C@H]5C[C@H]54)c3)nccc2c1 [Example 339]
Cathepsin D (Cat D); read-out: CatD IC50
  pIC50: < 3.40
[1]; [2]
  pIC50: 5.09

## N#Cc1cnc2c(Nc3ccc(Cl)c([C@]4(C(F)F)N=C(N)O[C@H]5C[C@H]54)c3)ncc(F)c2c1 [Example 349, 8-((3-((1(R,S),5(S,R),6(R,S))-3-amino-5-(difluoromethyl)-2-oxa-4-azabicyclo[4.1.0]hept-3-en-5-yl)-4-chlorophenyl)amino)-5-fluoro-1,7-naphthyridine-3-carbonitrile]
Cathepsin D (Cat D); read-out: CatD IC50
  pIC50: 4.05
[1]; [2]
  pIC50: 7.08

## N#Cc1cnc2c(Nc3ccc(Cl)c([C@]4(C(F)F)N=C(N)O[C@H]5C[C@H]54)c3)ncc(F)c2c1 [Example 351, 8-((3-((1S,5R,6S)-3-amino-5-(difluoromethyl)-2-oxa-4-azabicyclo[4.1.0]hept-3-en-5-yl)-4-chlorophenyl)amino)-5-fluoro-1,7-naphthyridine-3-carbonitrile]
Cathepsin D (Cat D); read-out: CatD IC50
  pIC50: < 4.83
[1]; [2]
  pIC50: 5.55

## NC1=N[C@@](c2cc(Nc3coc4cc(Cl)cnc34)ccc2F)(C(F)F)[C@H]2C[C@H]2O1 [Example 385, N-(3-((1R,5S,6R)-3-amino-5-(difluoromethyl)-2-oxa-4-azabicyclo[4.1.0]hept-3-en-5-yl)-4-fluorophenyl)-6-chlorofuro[3,2-b]pyridin-3-amine]
Cathepsin D (Cat D)
  pIC50: 3.82
[1]
  pIC50: 6.60

## N#Cc1cnc2c(c1)CC[C@H]2Nc1ccc(F)c([C@@]2(C(F)F)N=C(N)O[C@@H]3C[C@@H]32)c1 [Example 401, (R)-7-((3-((1R,5S,6R)-3-amino-5-(difluoromethyl)-2-oxa-4-azabicyclo[4.1.0]hept-3-en-5-yl)-4-fluorophenyl)amino)-6,7-dihydro-5H-cyclopenta[b]pyridine-3-carbonitrile]
BACE
  pIC50: 7.24
[1]; [2]
  pIC50: 6.97

## NC1=N[C@](c2cc(-c3nc4ccc(Cl)cc4o3)ccc2F)(C(F)F)[C@@H]2C[C@@H]2O1 [Example 425, (1S,5R,6S)-5-(5-(6-chlorobenzo[d]oxazol-2-yl)-2-fluorophenyl)-5-(difluoromethyl)-2-oxa-4-azabicyclo[4.1.0]hept-3-en-3-amine]
Cathepsin D (Cat D); read-out: CatD IC50
  pIC50: 3.62
[1]; [2]
  pIC50: 6.21

## NC1=N[C@@](c2cc(-c3nc4ccc(Cl)cc4o3)ccc2F)(C(F)F)[C@H]2C[C@H]2O1 [Example 426, (1R,5S,6R)-5-(5-(6-chlorobenzo[d]oxazol-2-yl)-2-fluorophenyl)-5-(difluoromethyl)-2-oxa-4-azabicyclo[4.1.0]hept-3-en-3-amine]
Cathepsin D (Cat D); read-out: CatD IC50
  pIC50: 3.71
[1]; [2]
  pIC50: 5.91

## CC#Cc1cncc(-c2ccc(F)c([C@@]3(CF)N=C(N)O[C@@H]4C[C@@H]43)c2)c1 [Example 431, (1(S,R),5(R,S),6(S,R))-5-(2-fluoro-5-(5-(prop-1-yn-1-yl)pyridin-3-yl)phenyl)-5-(fluoromethyl)-2-oxa-4-azabicyclo[4.1.0]hept-3-en-3-amine]
Cathepsin D (Cat D); read-out: CatD IC50
  pIC50: 4.04
[1]; [2]
  pIC50: 5.33

## CC#Cc1cncc(-c2cc([C@]3(CF)N=C(N)O[C@H]4C[C@H]43)c(F)cc2CO)c1 [Example 432, (4-(((1S,R),(5R,S),(6S,R))-3-amino-5-(fluoromethyl)-2-oxa-4-azabicyclo[4.1.0]hept-3-en-5-yl)-5-fluoro-2-(5-(prop-1-yn-1-yl)pyridin-3-yl)phenyl)methanol]
Cathepsin D (Cat D); read-out: CatD IC50
  pIC50: 3.75
[1]; [2]
  pIC50: 4.48

## NC1=N[C@@](c2cc(-n3cc(C#CC4CC4)cn3)ccc2F)(C(F)F)[C@H]2C[C@H]2O1 [Example 435]
Cathepsin D (Cat D); read-out: CatD IC50
  pIC50: 3.50
[1]; [2]
  pIC50: 5.06

## CNc1cnc(C(=O)Nc2ccc(F)c([C@@]3(C(F)F)N=C(N)O[C@@H]4C[C@@H]43)c2)nc1 [Example 439, N-(3-((1R,5S,6R)-3-amino-5-(difluoromethyl)-2-oxa-4-azabicyclo[4.1.0]hept-3-en-5-yl)-4-fluorophenyl)-5-(methylamino)pyrimidine-2-carboxamide dihydrochloride]
Cathepsin D (Cat D); read-out: CatD IC50
  pIC50: 3.31
[1]; [2]
  pIC50: 6.33

## (R)-8-((3-((1R,5S,6R)-3-amino-5-(difluoromethyl)-2-oxa-4-azabicyclo[4.1.0]hept-3-en-5-yl)-4-fluorophenyl)amino)-5,6,7,8-tetrahydroquinoline-3-carbonitrile and (S)-8-((3-((1R,5S,6R)-3-amino-5-(difluoromethyl)-2-oxa-4-azabicyclo[4.1.0]hept-3-en-5-yl)-4-fluorophenyl)amino)-5,6,7,8-tetrahydroquinoline-3-carbonitrile [Example 403]
Cathepsin D (Cat D); read-out: CatD IC50
  pIC50: 3.33
[1]; [2]
  pIC50: 5.54

## N-(3-((1R,5S,6R)-3- amino-5- (difluoromethyl)-2-oxa- 4-azabicyclo[4.1.0]hept- 3-en-5-yl)-4-fluoro-5- methylphenyl)-4-chloro- 2-(fluoromethyl) benzamide [Example 444]
Cathepsin D (Cat D); read-out: CatD IC50
  pIC50: 3.77
[1]; [2]
  pIC50: 7.98
